Target: T1, Dopamine beta hydroxylase (Homo sapiens, UniProt P09172)
T1 construct: 125 μl of plasma; tissue Instituto Português do Sangue Transplantação; host or cells: human plasma from healthy donors
T1 sequence (P09172 40-617 limits assumed): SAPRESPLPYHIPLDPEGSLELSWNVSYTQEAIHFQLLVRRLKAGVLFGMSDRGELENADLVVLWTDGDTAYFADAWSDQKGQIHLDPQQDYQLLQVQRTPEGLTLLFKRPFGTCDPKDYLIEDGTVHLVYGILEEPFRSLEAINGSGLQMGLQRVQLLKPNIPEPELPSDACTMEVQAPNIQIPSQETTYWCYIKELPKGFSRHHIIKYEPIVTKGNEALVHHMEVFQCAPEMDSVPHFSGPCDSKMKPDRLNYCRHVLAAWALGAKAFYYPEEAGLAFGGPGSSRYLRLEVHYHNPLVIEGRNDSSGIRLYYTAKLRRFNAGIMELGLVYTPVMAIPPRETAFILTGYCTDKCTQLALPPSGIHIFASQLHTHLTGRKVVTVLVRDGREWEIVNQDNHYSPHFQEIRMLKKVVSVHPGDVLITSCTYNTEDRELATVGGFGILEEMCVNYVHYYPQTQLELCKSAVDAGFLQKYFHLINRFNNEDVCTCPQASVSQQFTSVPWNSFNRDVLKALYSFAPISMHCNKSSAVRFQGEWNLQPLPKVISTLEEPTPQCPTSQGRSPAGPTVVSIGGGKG
Experiment: Dopamine beta hydroxylase activity in human plasma
Type: biochemical
Conditions: for Plasma (0.1 μM), activity in % of control: inhibitor 0.1 μM; for Plasma (1 μM), activity in % of control: inhibitor 1 μM; for Plasma (0.01 μM), activity in % of control: inhibitor 0.01 μM
Summary of the method: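 Healthy-donor human plasma pre-incubated 10 min at 37° C with compound at final 10, 100 or 1000 nM in pH 5.0 acetate buffer with ascorbate, fumarate, pargyline, N-ethylmaleimide, catalase and copper sulfate. Tyramine substrate then added for 45 min; octopamine formed was isolated by SCX cartridge, periodate-converted and read at 330 nm; activity given as % control.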

| Compound | Plasma (0.1 μM), activity in % of control | Plasma (1 μM), activity in % of control | Plasma (0.01 μM), activity in % of control |
| --- | --- | --- | --- |
| O=C(Cc1[nH]c(=S)n2c1C[C@@H](c1c(F)ccc(Br)c1F)C2)NC1CCC1 [Example 102, (S)-2-(6-(3-bromo-2,6-difluorophenyl)-3-thioxo-2,5,6,7-tetrahydro-3H-pyrrolo[1,2-c]imidazol-1-yl)-N-cyclobutylacetamide] | 20.3 % of control | 1.7 % of control |  |
| O=C(NCc1[nH]c(=S)n2c1C[C@@H](c1c(F)ccc(Cl)c1F)C2)c1cccnc1 [Example 223, (S)—N-((6-(3-chloro-2,6-difluorophenyl)-3-thioxo-2,5,6,7-tetrahydro-3H-pyrrolo[1,2-c]imidazol-1-yl)methyl)nicotinamide] | 7.2 % of control |  | 42.7 % of control |
| O=C(Cc1[nH]c(=S)n2c1C[C@@H](c1c(F)ccc(Cl)c1F)C2)NCCCN1CCOCC1 [Example 89, (S)-2-(6-(3-chloro-2,6-difluorophenyl)-3-thioxo-2,5,6,7-tetrahydro-3H-pyrrolo[1,2-c]imidazol-1-yl)-N-(3-morpholinopropyl)acetamide] | 4.3 % of control | 0 % of control |  |
| CN(CCO)CCc1[nH]c(=S)n2c1C[C@H](c1c(F)ccc(Br)c1F)C2 [Example 183, (R)-6-(3-bromo-2,6-difluorophenyl)-1-(2-((2-hydroxyethyl)(methyl)amino)ethyl)-2,5,6,7-tetrahydro-3H-pyrrolo[1,2-c]imidazole-3-thione] | 79.8 % of control |  | 92.2 % of control |
| CCOCCCc1[nH]c(=S)n2c1C[C@H](c1c(F)c(F)cc(F)c1F)C2 [Example 216, (R)-1-(3-ethoxypropyl)-6-(2,3,5,6-tetrafluorophenyl)-2,5,6,7-tetrahydro-3H-pyrrolo[1,2-c]imidazole-3-thione] | 47.1 % of control |  | 84.5 % of control |
| CC(C)NC(=O)Cc1[nH]c(=S)n2c1C[C@H](c1c(F)ccc(Br)c1F)C2 [Example 133, (R)-2-(6-(3-bromo-2,6-difluorophenyl)-3-thioxo-2,5,6,7-tetrahydro-3H-pyrrolo[1,2-c]imidazol-1-yl)-N-isopropylacetamide] | 82.4 % of control |  | 95.9 % of control |
| Cn1c(CC(=O)N[C@H]2CCOC2)c2n(c1=S)C[C@H](c1c(F)ccc(Cl)c1F)C2 [Example 385, 2-((S)-6-(3-chloro-2,6-difluorophenyl)-2-methyl-3-thioxo-2,5,6,7-tetrahydro-3H-pyrrolo[1,2-c]imidazol-1-yl)-N—((S)-tetrahydrofuran-3-yl)acetamide] | 19.3 % of control |  | 68.1 % of control |
| O=C(Cc1[nH]c(=S)n2c1C[C@@H](c1c(F)ccc(Cl)c1F)C2)N[C@@H]1CCCOC1 [Example 401, 2-((S)-6-(3-chloro-2,6-difluorophenyl)-3-thioxo-2,5,6,7-tetrahydro-3H-pyrrolo[1,2-c]imidazol-1-yl)-N—((R)-tetrahydro-2H-pyran-3-yl)acetamide] | 35.2 % of control |  | 66.5 % of control |
| CN1C[C@@H](NC(=O)Cc2c3n(c(=S)n2C)C[C@@H](c2c(F)ccc(F)c2F)C3)CC1=O [Example 389, 2-((R)-2-methyl-3-thioxo-6-(2,3,6-trifluorophenyl)-2,5,6,7-tetrahydro-3H-pyrrolo[1,2-c]imidazol-1-yl)-N—((S)-1-methyl-5-oxopyrrolidin-3-yl)acetamide] | 33.1 % of control |  | 75.2 % of control |
| N#CCNC(=O)Cc1[nH]c(=S)n2c1[C@@H]1C[C@]1(c1cc(Br)ccc1F)C2 [Example 144, 2-((5aS,6aR)-5a-(5-bromo-2-fluorophenyl)-3-thioxo-2,3,5,5a,6,6a-hexahydrocyclopropa[3,4]pyrrolo[1,2-c]imidazol-1-yl)-N-(cyanomethyl)acetamide] | 14.7 % of control | 0.1 % of control |  |
| CN1CC(NC(=O)Cc2c3n(c(=S)n2C)C[C@@H](c2c(F)ccc(F)c2F)C3)CCC1=O (stereo partly drawn) [Example 371, 2-((R)-2-methyl-3-thioxo-6-(2,3,6-trifluorophenyl)-2,5,6,7-tetrahydro-3H-pyrrolo[1,2-c]imidazol-1-yl)-N-(1-methyl-6-oxopiperidin-3-yl)acetamide] | 17.7 % of control |  | 79.0 % of control |
| CN(C(=O)Cc1c2n(c(=S)n1C)C[C@@]1(c3cc(Cl)ccc3F)C[C@@H]21)[C@@H]1CCOC1 [Example 468, 2-((5aS,6aR)-5a-(5-chloro-2-fluorophenyl)-2-methyl-3-thioxo-2,3,5,5a,6,6a-hexahydrocyclopropa[3,4]pyrrolo[1,2-c]imidazol-1-yl)-N-methyl-N—((R)-tetrahydrofuran-3-yl)acetamide] | 13.1 % of control |  | 65.8 % of control |
| Cl.Cn1c(CCNCC(F)(F)F)c2n(c1=S)C[C@@]1(c3cc(Br)ccc3F)C[C@@H]21 [Example 334, (5aS,6aR)-5a-(5-bromo-2-fluorophenyl)-2-methyl-1-(2-((2,2,2-trifluoroethyl)amino)ethyl)-5,5a,6,6a-tetrahydrocyclopropa[3,4]pyrrolo[1,2-c]imidazole-3(2H)-thione Hydrochloride] | 41.9 % of control |  | 80.3 % of control |
| O=C(Cc1[nH]c(=S)n2c1C[C@@H](c1c(F)ccc(Cl)c1F)C2)Nc1nncs1 [Example 168, (S)-2-(6-(3-chloro-2,6-difluorophenyl)-3-thioxo-2,5,6,7-tetrahydro-3H-pyrrolo[1,2-c]imidazol-1-yl)-N-(1,3,4-thiadiazol-2-yl)acetamide] | 10.5 % of control |  | 51.9 % of control |
| C[C@H](NC(=O)Cc1[nH]c(=S)n2c1C[C@H](c1c(F)c(F)cc(F)c1F)C2)C(N)=O [Example 26, (S)-2-(2-((R)-6-(2,3,5,6-tetrafluorophenyl)-3-thioxo-2,5,6,7-tetrahydro-3H-pyrrolo[1,2-c]imidazol-1-yl)acetamido)propanamide] | 64.0 % of control | 18.2 % of control |  |
| O=C(Cc1[nH]c(=S)n2c1C[C@H](c1c(F)ccc(F)c1F)C2)NC1CCOCC1 [Example 376, (R)—N-(tetrahydro-2H-pyran-4-yl)-2-(3-thioxo-6-(2,3,6-trifluorophenyl)-2,5,6,7-tetrahydro-3H-pyrrolo[1,2-c]imidazol-1-yl)acetamide] | 59.3 % of control |  | 116.3 % of control |
| COC[C@@H]1CCCN1C(=O)Cc1c2n(c(=S)n1C)C[C@@H](c1c(F)c(F)cc(F)c1F)C2 [Example 283, 1-((S)-2-(methoxymethyl)pyrrolidin-1-yl)-2-((R)-2-methyl-6-(2,3,5,6-tetrafluorophenyl)-3-thioxo-2,5,6,7-tetrahydro-3H-pyrrolo[1,2-c]imidazol-1-yl)ethan-1-one] | 72.9 % of control |  | 96.0 % of control |
| O=C(Cc1[nH]c(=S)n2c1C[C@H](c1c(F)ccc(F)c1F)C2)N[C@@H]1CCOC1 [Example 368, 2-((R)-6-(2,3,6-trifluorophenyl)-3-thioxo-2,5,6,7-tetrahydro-3H-pyrrolo[1,2-c]imidazol-1-yl)-N—((R)-tetrahydrofuran-3-yl)acetamide] | 63.1 % of control |  | 104.4 % of control |
| CN(C)C(=O)Cc1[nH]c(=S)n2c1[C@@H]1C[C@]1(c1cc(F)cc(Cl)c1)C2 [Example 69, 2-((5aS,6aR)-5a-(3-chloro-5-fluorophenyl)-3-thioxo-2,3,5,5a,6,6a-hexahydrocyclopropa[3,4]pyrrolo[1,2-c]imidazol-1-yl)-N,N-dimethylacetamide] | 82.1 % of control | 24.1 % of control |  |
| O=C(Cc1[nH]c(=S)n2c1[C@@H]1C[C@]1(c1cc(Cl)ccc1F)C2)Nc1cccnc1 [Example 171, 2-((5aS,6aR)-5a-(5-chloro-2-fluorophenyl)-3-thioxo-2,3,5,5a,6,6a-hexahydrocyclopropa[3,4]pyrrolo[1,2-c]imidazol-1-yl)-N-(pyridin-3-yl)acetamide] | 3.7 % of control |  | 40.4 % of control |
| CN(C(=O)Cc1c2n(c(=S)n1C)C[C@@]1(c3cc(Br)ccc3F)C[C@@H]21)C1CCOCC1 [Example 439, 2-((5aS,6aR)-5a-(5-bromo-2-fluorophenyl)-2-methyl-3-thioxo-2,3,5,5a,6,6a-hexahydrocyclopropa[3,4]pyrrolo[1,2-c]imidazol-1-yl)-N-methyl-N-(tetrahydro-2H-pyran-4-yl)acetamide] | 11.8 % of control |  | 67.2 % of control |

Source: patent US11434242B2, “Dopamine-b-hydroxylase inhibitors” (BIAL-PORTELA & Cª, S.A., priority 2017, dated 2022)
